{"source": "PubChem BioAssay AID1963985", "about": "(Molecular Pharmacology Branch, DTP, NCI, 2024);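 also: spheroids exposed to agents for seven days before readout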;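 as to viability, T/C: percent of vehicle DMSO control viability so 100% = untreated growth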", "test_system": "252836-082-R-J2-PDC tumor spheroids, viability", "experiment": "Anticancer human tumor 252836-082-R-J2-PDC patient-derived head and neck squamous cell carcinoma cell line growth inhibition [PI3K]", "details": "spheroids with HUVEC and MSC; for viability, T/C: stronger effect = lower value", "how_it_was_run": "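High-throughput combination screen: PI3K inhibitors crossed with targeted small molecules on complex spheroids of tumor cells, HUVEC and MSCs at 37 degrees C, 5% CO2. Top concentration was at or near clinical Cmax (otherwise 10 microM), with half-log decrements.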", "key": {"[1]": {"details": "curve of first compound, second compound 0.0316 µM"}, "[2]": {"details": "curve of first compound, second compound 0.1 µM"}, "[3]": {"details": "curve of first compound, second compound 0.316 µM"}, "[4]": {"details": "curve of first compound, second compound 1 µM"}, "[5]": {"details": "second compound 0.0316 µM, first compound 0.0316 µM"}, "[6]": {"details": "second compound 0.0316 µM, first compound 0.1 µM"}, "[7]": {"details": "second compound 0.0316 µM, first compound 0.316 µM"}, "[8]": {"details": "second compound 0.0316 µM, first compound 1 µM"}, "[9]": {"details": "second compound 0.0316 µM, first compound 3.16 µM"}, "[10]": {"details": "second compound 0.0316 µM, first compound 10 µM"}, "[11]": {"details": "second compound 0.1 µM, first compound 0.0316 µM"}, "[12]": {"details": "second compound 0.1 µM, first compound 0.1 µM"}, "[13]": {"details": "second compound 0.1 µM, first compound 0.316 µM"}, "[14]": {"details": "second compound 0.1 µM, first compound 1 µM"}, "[15]": {"details": "second compound 0.1 µM, first compound 3.16 µM"}, "[16]": {"details": "second compound 0.1 µM, first compound 10 µM"}, "[17]": {"details": "second compound 0.316 µM, first compound 0.0316 µM"}, "[18]": {"details": "second compound 0.316 µM, first compound 0.1 µM"}, "[19]": {"details": "second compound 0.316 µM, first compound 0.316 µM"}, "[20]": {"details": "second compound 0.316 µM, first compound 1 µM"}, "[21]": {"details": "second compound 0.316 µM, first compound 3.16 µM"}, "[22]": {"details": "second compound 0.316 µM, first compound 10 µM"}, "[23]": {"details": "second compound 1 µM, first compound 0.0316 µM"}, "[24]": {"details": "second compound 1 µM, first compound 0.1 µM"}, "[25]": {"details": "second compound 1 µM, first compound 0.316 µM"}, "[26]": {"details": "second compound 1 µM, first compound 1 µM"}, "[27]": {"details": "second compound 1 µM, first compound 3.16 µM"}, "[28]": {"details": "second compound 1 µM, first compound 10 µM"}}}
{"smiles": "CNC(=O)c1ccc(N2C(=S)N(c3ccc(C#N)c(C(F)(F)F)c3)C(=O)C2(C)C)cc1F", "note": "+ COc1c(OCCCN2CCOCC2)ccc2c3n(c(=NC(=O)c4cnc(N)nc4)nc12)CCN3", "values": [{"measurement": "IC50", "setting": "curve of first compound, second compound 0.00316 µM", "result": "> 10", "unit": "µM"}, {"measurement": "IC50", "setting": "curve of first compound, second compound 0.01 µM", "result": "> 10", "unit": "µM"}, {"measurement": "IC50", "setting": "[1]", "result": "> 10", "unit": "µM"}, {"measurement": "IC50", "setting": "[2]", "result": "< 0.0316", "unit": "µM"}, {"measurement": "IC50", "setting": "[3]", "result": "< 0.0316", "unit": "µM"}, {"measurement": "IC50", "setting": "[4]", "result": "< 0.0316", "unit": "µM"}, {"measurement": "viability, T/C", "setting": "second compound 0.00316 µM, first compound 0.0316 µM", "result": 97.9, "unit": "%"}, {"measurement": "viability, T/C", "setting": "second compound 0.00316 µM, first compound 0.1 µM", "result": 85.8, "unit": "%"}, {"measurement": "viability, T/C", "setting": "second compound 0.00316 µM, first compound 0.316 µM", "result": 87.3, "unit": "%"}, {"measurement": "viability, T/C", "setting": "second compound 0.00316 µM, first compound 1 µM", "result": 96.5, "unit": "%"}, {"measurement": "viability, T/C", "setting": "second compound 0.00316 µM, first compound 3.16 µM", "result": 96.2, "unit": "%"}, {"measurement": "viability, T/C", "setting": "second compound 0.00316 µM, first compound 10 µM", "result": 77.7, "unit": "%"}, {"measurement": "viability, T/C", "setting": "second compound 0.01 µM, first compound 0.0316 µM", "result": 73, "unit": "%"}, {"measurement": "viability, T/C", "setting": "second compound 0.01 µM, first compound 0.1 µM", "result": 64.5, "unit": "%"}, {"measurement": "viability, T/C", "setting": "second compound 0.01 µM, first compound 0.316 µM", "result": 79.5, "unit": "%"}, {"measurement": "viability, T/C", "setting": "second compound 0.01 µM, first compound 1 µM", "result": 71.9, "unit": "%"}, {"measurement": "viability, T/C", "setting": "second compound 0.01 µM, first compound 3.16 µM", "result": 76.1, "unit": "%"}, {"measurement": "viability, T/C", "setting": "second compound 0.01 µM, first compound 10 µM", "result": 80, "unit": "%"}, {"measurement": "viability, T/C", "setting": "[5]", "result": 60.7, "unit": "%"}, {"measurement": "viability, T/C", "setting": "[6]", "result": 60.1, "unit": "%"}, {"measurement": "viability, T/C", "setting": "[7]", "result": 49.9, "unit": "%"}, {"measurement": "viability, T/C", "setting": "[8]", "result": 60.9, "unit": "%"}, {"measurement": "viability, T/C", "setting": "[9]", "result": 62.8, "unit": "%"}, {"measurement": "viability, T/C", "setting": "[10]", "result": 54.3, "unit": "%"}, {"measurement": "viability, T/C", "setting": "[11]", "result": 36, "unit": "%"}, {"measurement": "viability, T/C", "setting": "[12]", "result": 38, "unit": "%"}, {"measurement": "viability, T/C", "setting": "[13]", "result": 36, "unit": "%"}, {"measurement": "viability, T/C", "setting": "[14]", "result": 36.3, "unit": "%"}, {"measurement": "viability, T/C", "setting": "[15]", "result": 33.5, "unit": "%"}, {"measurement": "viability, T/C", "setting": "[16]", "result": 34.5, "unit": "%"}, {"measurement": "viability, T/C", "setting": "[17]", "result": 19, "unit": "%"}, {"measurement": "viability, T/C", "setting": "[18]", "result": 17.2, "unit": "%"}, {"measurement": "viability, T/C", "setting": "[19]", "result": 17.1, "unit": "%"}, {"measurement": "viability, T/C", "setting": "[20]", "result": 17.3, "unit": "%"}, {"measurement": "viability, T/C", "setting": "[21]", "result": 17.4, "unit": "%"}, {"measurement": "viability, T/C", "setting": "[22]", "result": 13.4, "unit": "%"}, {"measurement": "viability, T/C", "setting": "[23]", "result": 4.5, "unit": "%"}, {"measurement": "viability, T/C", "setting": "[24]", "result": 3.94, "unit": "%"}, {"measurement": "viability, T/C", "setting": "[25]", "result": 5.87, "unit": "%"}, {"measurement": "viability, T/C", "setting": "[26]", "result": 4.83, "unit": "%"}, {"measurement": "viability, T/C", "setting": "[27]", "result": 4.62, "unit": "%"}, {"measurement": "viability, T/C", "setting": "[28]", "result": 4.12, "unit": "%"}]}
{"smiles": "CCCS(=O)(=O)Nc1ccc(F)c(C(=O)c2c[nH]c3ncc(-c4ccc(Cl)cc4)cc23)c1F", "values": [{"measurement": "viability, T/C", "setting": "compound 0.0316 µM", "result": "99% [middle of 4 runs]"}, {"measurement": "viability, T/C", "setting": "compound 1 µM", "result": "96.2% [middle of 4 runs]"}, {"measurement": "viability, T/C", "setting": "compound 3.16 µM", "result": "90% [middle of 4 runs]"}, {"measurement": "viability, T/C", "setting": "compound 10 µM", "result": "8.42% [middle of 4 runs]"}, {"measurement": "IC50", "setting": "curve of compound", "result": "5.49 µM [middle of 4 runs]"}]}
{"smiles": "Cn1nccc1Nc1nccc(-c2ccn(C(CO)c3ccc(Cl)c(F)c3)c(=O)c2)n1", "note": "(centres undefined) + CC(Nc1ncnc2nc[nH]c12)c1cc2cccc(Cl)c2c(=O)n1-c1ccccc1", "values": [{"measurement": "IC50", "setting": "[1]", "result": "> 10", "unit": "µM"}, {"measurement": "IC50", "setting": "[2]", "result": "> 10", "unit": "µM"}, {"measurement": "IC50", "setting": "[3]", "result": "> 10", "unit": "µM"}, {"measurement": "IC50", "setting": "[4]", "result": "> 10", "unit": "µM"}, {"measurement": "IC50", "setting": "curve of first compound, second compound 3.16 µM", "result": "> 10", "unit": "µM"}, {"measurement": "IC50", "setting": "curve of first compound, second compound 10 µM", "result": 6.58, "unit": "µM"}, {"measurement": "viability, T/C", "setting": "[5]", "result": 83.3, "unit": "%"}, {"measurement": "viability, T/C", "setting": "[6]", "result": 99.5, "unit": "%"}, {"measurement": "viability, T/C", "setting": "[7]", "result": 91.9, "unit": "%"}, {"measurement": "viability, T/C", "setting": "[8]", "result": 99.6, "unit": "%"}, {"measurement": "viability, T/C", "setting": "[9]", "result": 93.3, "unit": "%"}, {"measurement": "viability, T/C", "setting": "[10]", "result": 66.2, "unit": "%"}, {"measurement": "viability, T/C", "setting": "[11]", "result": 100, "unit": "%"}, {"measurement": "viability, T/C", "setting": "[12]", "result": 94.8, "unit": "%"}, {"measurement": "viability, T/C", "setting": "[13]", "result": 91.3, "unit": "%"}, {"measurement": "viability, T/C", "setting": "[14]", "result": 95.9, "unit": "%"}, {"measurement": "viability, T/C", "setting": "[15]", "result": 95.9, "unit": "%"}, {"measurement": "viability, T/C", "setting": "[16]", "result": 67.2, "unit": "%"}, {"measurement": "viability, T/C", "setting": "[17]", "result": 97.2, "unit": "%"}, {"measurement": "viability, T/C", "setting": "[18]", "result": 94.5, "unit": "%"}, {"measurement": "viability, T/C", "setting": "[19]", "result": 93.7, "unit": "%"}, {"measurement": "viability, T/C", "setting": "[20]", "result": 81.1, "unit": "%"}, {"measurement": "viability, T/C", "setting": "[21]", "result": 91.9, "unit": "%"}, {"measurement": "viability, T/C", "setting": "[22]", "result": 76, "unit": "%"}, {"measurement": "viability, T/C", "setting": "[23]", "result": 75.4, "unit": "%"}, {"measurement": "viability, T/C", "setting": "[24]", "result": 82.3, "unit": "%"}, {"measurement": "viability, T/C", "setting": "[25]", "result": 91.3, "unit": "%"}, {"measurement": "viability, T/C", "setting": "[26]", "result": 92.6, "unit": "%"}, {"measurement": "viability, T/C", "setting": "[27]", "result": 81.5, "unit": "%"}, {"measurement": "viability, T/C", "setting": "[28]", "result": 56.5, "unit": "%"}, {"measurement": "viability, T/C", "setting": "second compound 3.16 µM, first compound 0.0316 µM", "result": 72.4, "unit": "%"}, {"measurement": "viability, T/C", "setting": "second compound 3.16 µM, first compound 0.1 µM", "result": 86.2, "unit": "%"}, {"measurement": "viability, T/C", "setting": "second compound 3.16 µM, first compound 0.316 µM", "result": 77.5, "unit": "%"}, {"measurement": "viability, T/C", "setting": "second compound 3.16 µM, first compound 1 µM", "result": 80.5, "unit": "%"}, {"measurement": "viability, T/C", "setting": "second compound 3.16 µM, first compound 3.16 µM", "result": 80.9, "unit": "%"}, {"measurement": "viability, T/C", "setting": "second compound 3.16 µM, first compound 10 µM", "result": 52.9, "unit": "%"}, {"measurement": "viability, T/C", "setting": "second compound 10 µM, first compound 0.0316 µM", "result": 62, "unit": "%"}, {"measurement": "viability, T/C", "setting": "second compound 10 µM, first compound 0.1 µM", "result": 64.8, "unit": "%"}, {"measurement": "viability, T/C", "setting": "second compound 10 µM, first compound 0.316 µM", "result": 78.9, "unit": "%"}, {"measurement": "viability, T/C", "setting": "second compound 10 µM, first compound 1 µM", "result": 73.4, "unit": "%"}, {"measurement": "viability, T/C", "setting": "second compound 10 µM, first compound 3.16 µM", "result": 62.4, "unit": "%"}, {"measurement": "viability, T/C", "setting": "second compound 10 µM, first compound 10 µM", "result": 41.8, "unit": "%"}]}
